Results published in patent US12441734B2, “Ferroptosis inhibitor and use therefor” (JICHI MEDICAL UNIVERSITY, priority 2021, dated 2025).

Key:
SH-SY5Y cells = assay: Test VI: inhibition of rotenone-induced neuronal death (LDH assay); type: cell-based, human; design: key: ++: the case where a concentration-dependent inhibitory effect on rotenone-induced cell death was able to be confirmed twice; +: In the third test, the case where the concentration-dependent inhibitory effect was able to be confirmed; ±: the case where no concentration-dependent inhibitory effect was able to be confirmed; −: The case where any inhibitory effect on rotenone-induced cell death was able to be confirmed in none of the two tests; settings: rotenone 1 μM, compound 10 nM-10 μM (Apo 0.1 nM-10 μM), 48 hours
Method: After the completion of culture, rotenone-induced cell death was measured using Cytotoxicity LDH Assay Kit-WST (Dojindo Laboratories). […] The test was conducted twice, and the case where a concentration-dependent inhibitory effect on rotenone-induced cell death was able to be confirmed twice was rated as (++). If the inhibitory effect was confirmed in one of the two tests and no inhibitory effect was confirmed in the other test, the third test was conducted. In the third test, the case where the concentration-dependent inhibitory effect was able to be confirmed was rated as (+), and the case where no concentration-dependent inhibitory effect was able to be confirmed was rated as (±). The case where any inhibitory effect on rotenone-induced cell death was able to be confirmed in none of the two tests was rated as (−).

[1] = system: Leigh syndrome patient cells (KCMC10); assay: Test III: suppression of BSO-induced ferroptosis, Leigh syndrome patient cells; type: cell-based, human; settings: for EC50: Homo sapiens, read-out: EC50 (50% effective concentration of the suppressive effect on cell death ascribable to ferroptosis induced by BSO); for EC50 / ferroptosis inhibitory effect (judged from EC50 value): Leigh syndrome patient cells (KCMC10), BSO; for ferroptosis inhibitory effect (judged from EC50 value): Table 3; for cell death ascribable to ferroptosis induced by BSO: 100 μM BSO coadded with test compound, FIG. 32
Source text: (§1) Apomorphine and idebenone approved as a therapeutic drug for Leber's hereditary optic neuropathy in the Europe were used as control drugs.
(§2) In the drawing, A depicts the results obtained using compounds D8, D9, D10, D18, D20, D26, and D36, and B depicts the results obtained using compounds D37, D38, D39, D40, D41, D42, and D43. In the drawing, the abscissa depicts test compounds, and the ordinate depicts the cell viability (%) of each treated plot when the number of live cells in a control non-supplemented with BSO is defined as 100%.

dopamine D2 receptor = dopamine D2 receptor (Homo sapiens (Human), UniProt P14416); assay: Test IV: dopamine D2 receptor binding activity (GeneBLAzer D2-Gqo5-NEAT-bla CHO-K1 Cell-based Assay); settings: for Dopamine D2 receptor binding activity, Activity intensity: CHO-K1 reporter cells, 5 hours
Method: In this test, the dopamine D2 receptor binding activity of each test compound was measured using GeneBLAzer D2-Gqo5-NEAT-bla CHO-K1 Cell-based Assay (Thermo Fisher Scientific, Inc.). The CHO cells are designed such that a signal transduction pathway is activated by addition of a drug to express a reporter gene (P lactamase). […] Therefore, the binding activity of the test compound can be measured by measuring a blue fluorescence/green fluorescence ratio. The CHO cells were inoculated at 10,000 cells/well to a 384-well plate and cultured for 16 to 20 hours in a CO2 incubator. […] A substrate mix was added to the cells and incubated at room temperature for 2 hours. […] The respective EC50 values of the test compounds were determined from the measured fluorescence ratios using GraphPad Prism 8.

[2] = system: human liver cancer cell line (Huh7); assay: Test V: suppression of RSL-3-induced cell death in liver cancer cell system (LDH, MTT); type: cell-based; design: key to LDH (LDH activity, cell death): relative to control without RSL-3 (= 1); settings: Huh7, test compound 1 μM (GSK872 5 μM) 1 hour, then RSL-3 0.5 μM 24 hours, relative value, control non-supplemented with RSL-3 = 1; for viability at 1 µM: Homo sapiens, Huh-7, read-out: MTT (cell proliferation and cell viability)
Method: The ferroptosis inducer used was RSL-3.
At the stage where 70% confluency was attained, the medium was replaced with the medium for the test, and DMSO or each test compound (final concentration of GSK872: 5 μM, and final concentration of the other compounds: 1 μM) was added to the cells in each well, which were then cultured for 1 hour. Then, the ferroptosis inducer (final concentration: 0.5 μM) was added to the cells in each well, which were then cultured for 24 hours. After the completion of culture, cell death suppressive activity was measured with lactate dehydrogenase (LDH) activity as an index while cell proliferation and cell viability were measured with activity of reducing yellow tetrazolium salt (MTT) into formazan as an index.
The values in the table are relative values when the LDH activity and MTT value of a control non-supplemented with RSL-3 are each defined as 1.

[3] = system: Leigh syndrome patient cells (KCMC10); assay: Test III: suppression of RSL-3-induced ferroptosis, Leigh syndrome patient cells; type: cell-based, human; settings: 100 nM RSL-3 coadded with test compound; FIG. 34
Source text: as §1
as §2, with “RSL-3” for “BSO”

[4] = system: MELAS patient cells (ME169); assay: Test III: suppression of BSO-induced ferroptosis, MELAS patient cells; type: cell-based, human; settings: 80 μM BSO coadded with test compound; FIG. 33
Source text: as §1, §2

[5] = system: MELAS patient cells (ME169); assay: Test III: suppression of RSL-3-induced ferroptosis, MELAS patient cells; type: cell-based, human; settings: 100 nM RSL-3 coadded with test compound; FIG. 35
Source text: as §1
as §2, with “RSL-3” for “BSO”

Sequence of dopamine D2 receptor (P14416 whole entry): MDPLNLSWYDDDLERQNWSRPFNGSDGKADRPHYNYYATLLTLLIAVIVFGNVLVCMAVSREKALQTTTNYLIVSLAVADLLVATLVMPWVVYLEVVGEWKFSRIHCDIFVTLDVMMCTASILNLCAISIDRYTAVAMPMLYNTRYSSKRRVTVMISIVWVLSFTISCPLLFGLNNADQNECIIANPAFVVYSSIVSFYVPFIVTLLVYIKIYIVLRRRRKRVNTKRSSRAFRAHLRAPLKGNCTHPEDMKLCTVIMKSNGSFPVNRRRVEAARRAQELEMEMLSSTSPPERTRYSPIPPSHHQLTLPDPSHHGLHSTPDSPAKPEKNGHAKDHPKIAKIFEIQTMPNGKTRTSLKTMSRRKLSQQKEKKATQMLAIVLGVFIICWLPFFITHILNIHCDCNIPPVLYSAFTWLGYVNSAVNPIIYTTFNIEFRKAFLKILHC

Structure (SMILES) | Inhibitory effect on rotenone-induced cell death (SH-SY5Y cells) | EC50 [1] [µM] | dopamine D2 receptor binding activity (in words) (dopamine D2 receptor) | Dopamine D2 receptor binding activity, Activity intensity (dopamine D2 receptor) | viability at 1 µM [2] [%] | LDH (LDH activity, cell death) [2] | ferroptosis inhibitory effect (judged from EC50 value) [1] | cell death ascribable to ferroptosis induced by RSL-3 [3] | cell death ascribable to ferroptosis induced by BSO [4] | cell death ascribable to ferroptosis induced by RSL-3 [5] | cell death ascribable to ferroptosis induced by BSO [1]
COc1ccc2c(c1O)-c1c(OC)c(OC)cc3c1[C@@H](C2)N(C)CC3 [D43] | − | 0.223 | no or little | − | 49 | 6.52 |  |  |  |  | 
CCCCCCCCCOc1ccc2c(c1O)-c1cccc3c1[C@@H](C2)N(C)CC3.Cl [D41] |  | 0.648 | no or little | − |  |  |  |  |  |  | 
CN1CCc2cccc3c2[C@H]1Cc1ccc(OCCCCl)c(O)c1-3.Cl [D39] | + | 0.259 | no or little | − | 80 | 1.15 |  |  |  |  | 
CN1CCc2cccc3c2[C@H]1Cc1ccc(OCCCc2ccccc2)c(O)c1-3.Cl [D37] | ++ | 0.186 | no or little | − | 80 | 0.85 | particularly high |  |  |  | 
CN1CCc2cccc3c2[C@H]1Cc1ccc(OCc2ccccc2)c(O)c1-3 [D47] | ++ | 0.124 | no or little | − | 71 | 0.39 | particularly high |  |  |  | 
CCOc1ccc2c(c1O)-c1cccc3c1[C@@H](C2)N(C)CC3 [D55] | + | 0.004 | no or little | − | 78 | 0.44 | particularly high |  |  |  | 
COc1cccc2c1C[C@@H]1c3c(cc4c(c3-2)OCO4)CCN1C [D9] |  | 0.393 | no or little | − |  |  |  | suppressed | markedly suppressed | suppressed | markedly suppressed
CCCOc1ccc2c(c1O)-c1cccc3c1[C@@H](C2)N(C)CC3.Cl [D40] | + | 0.055 | no or little | − | 84 | 1.15 | particularly high |  |  |  | 
CN1CCc2cccc3c2[C@H]1Cc1ccc(OCCc2ccccc2)c(O)c1-3 [D48] | ++ | 0.128 | no or little | − | 78 | 0.44 | particularly high |  |  |  | 
CN1CCc2cccc3c2[C@H]1Cc1ccc(OCCCCc2ccccc2)c(O)c1-3 [D50] | ++ | 0.207 | no or little | − | 60 | 0.43 |  |  |  |  | 
CN1CCc2cccc3c2[C@H]1Cc1ccc(-c2ccccc2)c(O)c1-3 [D45] | ++ | 0.096 | no or little | ± | 77 | 0.43 | particularly high |  |  |  | 
CN1CCc2cccc3c2[C@H]1Cc1ccc(OCCCO)c(O)c1-3.Cl [D38] | ++ |  | no or little | ± | 81 | 1.66 | particularly high |  |  |  | 
CN1CCc2cccc3c2[C@H]1Cc1ccc(OCCCC(F)(F)F)c(O)c1-3.Cl [D42] | + | 0.167 | no or little | − | 82 | 1.55 | particularly high |  |  |  | 
COc1cc2c(cc1OC)-c1c3c(c(OC)c4c1C(C2)N(C)CC4)OCO3 (stereo not shown) [D20] |  | 0.798 | no or little | − |  |  |  | suppressed | markedly suppressed | suppressed | markedly suppressed
CN1CCc2cccc3c2[C@H]1Cc1ccc(OCCC(c2ccccc2)c2ccccc2)c(O)c1-3 [D54] | − |  | no or little | − | 68 | 0.43 |  |  |  |  | 
COc1cc(O)c2c(c1)C[C@@H]1c3c(cc4c(c3-2)OCO4)CCN1C [D10] |  | 0.75 | no or little | − |  |  |  | suppressed | markedly suppressed | suppressed | markedly suppressed
CN1CCc2cc3c(c4c2[C@H]1Cc1ccccc1-4)OCO3 [D18] |  | 0.492 | no or little | − |  |  |  | suppressed | markedly suppressed | suppressed | markedly suppressed
